For series [1] the following is noted: primary amine group; cited from earlier work.
For series [2] the following is noted: certain aqueous conditions, compared with Form 1; cited from earlier work.
Series [3] is described as follows: PXRD study of crystal form stability on storage. In kind it is physicochemical. How it is done: Lesinurad Form APO-I can be characterized by a PXRD diffractogram comprising, among other peaks, characteristic peaks, expressed in degrees 2θ (±0.2°), at 7.8°, 15.1° and 27.0°. Preferably, the PXRD diffractogram further comprises at least three peaks, expressed in degrees 2θ (±0.2°), selected from the group consisting of: 14.5°, 15.6°, 16.4°, 17.6°, 18.5°, 19.9°, 22.1°, 23.5°, 25.9° and 29.3°. More preferably, the PXRD diffractogram further comprises peaks, expressed in degrees 2θ (±0.2°), at 14.5°, 15.6°, 16.4°, 17.6°, 18.5°, 19.9°, 22.1°, 23.5°, 25.9° and 29.3°. PXRD studies of a capped sample of Lesinurad Form APO-I have shown that this crystal form is stable following storage in a stability chamber maintained at 27° C./60% RH for 17 days.
Lesinurad Form APO-II can be characterized by a PXRD diffractogram comprising, among other peaks, characteristic peaks, expressed in degrees 2θ (±0.2°), at 7.9°, 15.2°, 16.5° and 25.4°. Preferably, the PXRD diffractogram further comprises at least two peaks, expressed in degrees 2θ (±0.2°), selected from the group consisting of: 14.4°, 15.7°, 17.7°, 18.4°, 22.1°, 22.8°, 23.5°, 26.5°, 28.8° and 29.3°. More preferably, the PXRD diffractogram further comprises peaks, expressed in degrees 2θ (±0.2°), at 14.4°, 15.7°, 17.7°, 18.4°, 22.1°, 22.8°, 23.5°, 26.5°, 28.8° and 29.3°. PXRD studies of a capped sample of Lesinurad Form APO-II have shown that this crystal form is stable following storage at room temperature and ambient humidity for 28 days.
Lesinurad Form APO-III can be characterized by a PXRD diffractogram comprising, among other peaks, characteristic peaks, expressed in degrees 2θ (±0.2°), at 6.2° and 19.9°. Preferably, the PXRD diffractogram further comprises at least four peaks, expressed in degrees 2θ (±0.2°), selected from the group consisting of: 7.6, 10.3°, 14.1°, 15.3°, 17.8°, 21.1°, 23.4°, 25.7° and 27.2°. More preferably, the PXRD diffractogram further comprises peaks, expressed in degrees 2θ (±0.2°), at 7.6°, 10.3°, 14.1°, 15.3°, 17.8°, 21.1°, 23.4°, 25.7° and 27.2°. PXRD studies of capped and uncapped samples of Lesinurad Form APO-III have shown that this crystal form is stable following storage in stability chambers maintained at 27° C./60% RH and 40° C./75% RH for 18 days.
Data were acquired on a PANanalytical X-Pert Pro MPD diffractometer with fixed divergence slits and an X'Celerator RTMS detector. The diffractometer was configured in Bragg-Brentano geometry; data was collected over a 2-theta range of 3° to 40° using CuKα radiation at a power of 40 mA and 45 kV. […] was removed using a divergent beam nickel filter. A step size of 0.017° was used. Samples were rotated to reduce preferred orientation effects. Samples were lightly ground prior to analysis. […]

Series [4] is described as follows: Stability study under stress conditions (impurities, area %). The note with it: for Major Unidentified Impurity: RRT in brackets. The format is physicochemical. On the procedure:
(§1) The stability of Lesinurad Form APO-III was assessed under various stress conditions as outlined in Table 5.

Series [5] can be described thus: Hygroscopicity on storage in humid, high temperature environment. In kind it is physicochemical. The note with it: stress conditions of Table 5 (open sample, 40° C./75% RH, 21 days). How it is done:
as §1
The title solid form of Lesinurad was prepared according to the procedure in Example 14 of WO 2015/095703 A1. A suspension of Lesinurad (1 g) in ethyl acetate (63 mL) was sonicated at room temperature for 30 minutes in order to achieve dissolution. Proline (570 mg) was added to the solution, and the resulting suspension was stirred at room temperature for 26 hours, at which time the suspension was isolated by filtration to afford a solid (872.9 mg, 68% yield) having a PXRD diffractogram consistent with FIG. 22 in WO 2015/095703 A1. […]

[6] abbreviates: dry heat, heat/humidity and light exposure.
[7] abbreviates: light exposure 200 W·hr/m^2 UV + 1.2M LUX hr fluorescent.
[8] abbreviates: open sample, dry heat, solid state, 60° C./ambient RH, 21 days.
Setting [9] is: open sample, heat/humidity, solid state, 40° C./75% RH, 21 days.
[10] abbreviates: sample wrapped in foil (control), light exposure 200 W·hr/m^2 UV + 1.2M LUX hr fluorescent.

Consider five molecules from patent publication US10513500B2, “Crystalline forms of Lesinurad” (Apotex Inc., priority 2016, dated 2019).

Entries after “also recorded” stand apart in the source; their conditions may differ.

As to `O=C(O)[C@@H]1CCCN1` [Proline], the pKa result in series [1] is given as “approximately 10.6”.

In the case of `O=C(O)CSc1nnc(Br)n1-c1ccc(C2CC2)c2ccccc12` [Form 2, Lesinurad], the “solubility” value in series [2] is listed as “lower solubility than Form 1”.

Consider `O=C(O)CSc1nnc(Br)n1-c1ccc(C2CC2)c2ccccc12` [Lesinurad Form APO-II, Lesinurad], for which the “crystal form stability by PXRD” value in series [3] (capped sample, room temperature and ambient humidity, 28 days) is “no change; also recorded: stable”.

For the molecule `O=C(O)CSc1nnc(Br)n1-c1ccc(C2CC2)c2ccccc12` [Lesinurad Form APO-I, Lesinurad], the “crystal form stability by PXRD” value in series [3] (capped sample, stability chamber 27° C./60% RH, 17 days) is given as “stable; also recorded: no change”.

In the case of `O=C(O)CSc1nnc(Br)n1-c1ccc(C2CC2)c2ccccc12` [Lesinurad Form APO-III, Lesinurad], the “crystal form stability by PXRD” value in series [3] (capped and uncapped samples, 27° C./60% RH, 18 days) was “no change; also recorded: stable”; in series [3] (capped and uncapped samples, 40° C./75% RH, 18 days), “no change; also recorded: stable”. The “Total Identified Impurity” value was determined as 0.09 area % in series [4] (Non-stressed sample); 0.10 area % in series [4] (setting [7]); 0.10 area % in series [4] (setting [8]); 0.09 area % in series [4] (setting [9]); 0.10 area % in series [4] (setting [10]). Moreover, the “Total Impurities” value is on record as 0.33 area % in series [4] (Non-stressed sample); 0.46 area % in series [4] (setting [7]); 0.40 area % in series [4] (setting [8]); 0.38 area % in series [4] (setting [9]); 0.42 area % in series [4] (setting [10]). For the same molecule, the “Total Unidentified Impurity” value in series [4] (Non-stressed sample) was found to be 0.24 area %; in series [4] (setting [7]), 0.35 area %; in series [4] (setting [8]) it was 0.30 area %; in series [4] (setting [9]) it was 0.29 area %; in series [4] (setting [10]), 0.32 area %. Further, the “Major Unidentified Impurity” value is given as 0.08 (0.91) area % in series [4] (Non-stressed sample); 0.09 (0.92) area % in series [4] (setting [7]); 0.09 (0.91) area % in series [4] (setting [8]); 0.09 (0.91) area % in series [4] (setting [9]); 0.09 (0.92) area % in series [4] (setting [10]). Further, in series [4] (setting [6]), the “loss of Lesinurad” value is “no significant loss”. Also, the “stability to stress conditions” value in series [4] (setting [6]) was “good stability”. In addition, the total degradation entry in series [4] (dry heat, heat/humidity and light exposure (Table 5)) is “less than 0.10%”. The “chemical and physical stability” value in series [4] (humid and high temperature environment) was “chemically and physically stable”. The “hygroscopicity” value in series [5] was “did not exhibit signs of hygroscopicity”.
